Source: patent US20140080128A1, “METHOD FOR DETERMINING WHETHER A SUBJECT IS AT RISK OF HAVING OR DEVELOPING A CHRONIC KIDNEY DISEASE” (Institut National de Ia Sante et de la Recherche Medicale …, priority 2011, published 2014)

Key:
Assay type in all cases: in vivo, Sprague-Dawley rats
[1] = test system: Hypertension-Induced Renal Disease Rat Model (L-NAME); assay: Urinary protein excretion and plasma creatinine in L-NAME rat model
Protocol: (§1) Male Sprague-Dawley rats, weighing 250 g, were maintained on a normal-salt diet and had free access to chow and tap water. NO synthesis was inhibited by L-NAME (orally, 15 mg·kg-1·day-1). […] When proteinuria exceeded 1 g/mmol creatinine (after 5 or 6 weeks), a group of animals was killed to allow estimations of renal hemodynamics and morphological parameters just before the beginning of therapy (LN 6w group, n=10). The remaining animals were divided into two subgroups for an additional experimental period of 4 weeks: in the first subgroup, L-NAME was given alone (LN 10w group, n=12); in the second subgroup treatment was accompanied by the administration of an AT1 receptor antagonist (Losartan, orally 30 mg·kg-1·day-1, Merck Sharp and Dohme-Chibret). At the end of Losartan treatment, we separated the animals of the second group in two subgroups: animals with normal creatininemia below 50 μmol/l (LN reg n=14) and animals with a creatininemia above 70 μmol/l (LN no reg n=15). The doses of the drugs were based on pilot experiments and previously published studies. Control animals were sacrificed at 6 and 10 week. Since control animals gave similar results for all measured parameters, pooled data are presented (C group, n=8). Others animals received Losartan during 4 weeks as additional control group (LOS group, n=3). All protocols and treatments were performed with the approval of the French government ethics committee. Urine samples were collected for a 4-h period. Urinary protein concentration was normalized to creatinine concentration, and values were expressed as grams protein per millimole creatinine. Blood samples were withdrawn on the last day of the study, and plasma creatinine (nmol/l) was measured by automated Jaffe's method.

[2] = test system: Hypertension-Induced Renal Disease Rat Model (L-NAME); assay: Renal hemodynamics (arterial pressure, renal blood flow) in L-NAME hypertension-induced renal disease rat model; settings: for MAP (mean arterial pressure): L-NAME orally 15 mg/kg/day
Protocol: as §1, with “committee.” for “committee. Urine samples were collected for a 4-h period. Urinary protein concentration was normalized to creatinine concentration, and values were expressed as grams protein per millimole creatinine. Blood samples were withdrawn on the last day of the study, and plasma creatinine (nmol/l) was measured by automated Jaffe's method.”
After anesthesia by pentobarbital sodium (50-60 mg/kg body wt ip, Nembutal, Abbott, Chicago, Ill.), animals were placed on a servo-controlled table kept at 37° C. and the trachea was cannulated to facilitate respiration. The left femoral artery was catheterized for measurement of arterial pressure, and a femoral venous catheter was used for infusion of volume replacement. An ultrasound transit-time flow probe (1RB, Transonic, Ithaca, N.Y.) was placed around the left renal artery. Bovine serum albumin (4.7 g/dl of saline solution) was infused initially at 50 μl/min to replace surgical losses, and then at 10 μl/min for maintenance. Arterial pressure was measured via a pressure transducer (Statham P23 DB); RBF was measured by a flowmeter (T 420, low-pass filter, 40 Hz, Transonic). RBF values were controlled for zero offset determined at the end of an experiment after cardiac arrest. Data were recorded, stored, and analyzed using a DataTranslation analog-to-digital converter and the IOX software (EMKA Technologies, Paris, France).

[3] = test system: CD3+ lymphocytes in renal cortex; assay: Immunohistochemistry for CD3 in kidney of L-NAME rat model; settings: rats, after 6 and 10 weeks LNAME treatment
Protocol: as §1, with “[…] Quantification of CD3-positive cells was” for “Others animals received Losartan during 4 weeks as additional control group (LOS group, n=3). All protocols and treatments were”, “using Olympus analysis software.” for “with the approval of the French government ethics committee. Urine samples were collected for a 4-h period. Urinary protein concentration was normalized to creatinine concentration, and values were expressed as grams protein per millimole creatinine. Blood samples were withdrawn on the last day of the study, and plasma creatinine (nmol/l) was measured by automated Jaffe's method.”

[4] = test system: periostin, vimentin expression in renal cortex; assay: Real time quantitative PCR (and immunoblotting) of markers in renal cortex of L-NAME rat model; settings: for periostin mRNA up-regulation in kidney (RT-qPCR): rats, versus baseline
Protocol: Male Sprague-Dawley rats, weighing 250 g, were maintained on a normal-salt diet and had free access to chow and tap water. NO synthesis was inhibited by L-NAME (orally, 15 mg·kg-1·day-1). […] When proteinuria exceeded 1 g/mmol creatinine (after 5 or 6 weeks), a group of animals was killed to allow estimations of renal hemodynamics and morphological parameters just before the beginning of therapy (LN 6w group, n=10). The remaining animals were divided into two subgroups for an additional experimental period of 4 weeks: in the first subgroup, L-NAME was given alone (LN 10w group, n=12); in the second subgroup treatment was accompanied by the administration of an AT1 receptor antagonist (Losartan, orally 30 mg·kg-1·day-1, Merck Sharp and Dohme-Chibret). At the end of Losartan treatment, we separated the animals of the second group in two subgroups: animals with normal creatininemia below 50 μmol/l (LN reg n=14) and animals with a creatininemia above 70 μmol/l (LN no reg n=15). The doses of the drugs were based on pilot experiments and previously published studies. Control animals were sacrificed at 6 and 10 week. Since control animals gave similar results for all measured parameters, pooled data are presented (C group, n=8). Others animals received Losartan during 4 weeks as additional control group (LOS group, n=3). All protocols and treatments were performed with the approval of the French government ethics committee. We extracted RNA from the renal cortex and the abdominal aorta using TRIzol solution (Life Technologies BRL, Gaithersburg, Md.). RNA quality was checked by measuring the ratio of optical densities at 260 and 280 nm and residual genomic DNA was removed by DNase I treatment for 30 min at 37° C. (Fermentas). We used reverse transcription with Revert Aid H minus First Strand DNA Synthesis kit (Fermentas) to convert 1 μg RNA into cDNA, which was then amplified by PCR using a LightCycler 480 (Roche Diagnostic) using SYBR Green (Fast Start DNA Master SYBRGreen I; Roche Applied Science, Roche Diagnostic), specific primers for POST, Col3A1, ESel, Vimentin, VCAM-1 and hypoxanthine-guanine phosphoribosyltransferase (HPRT) as housekeeping gene under the following conditions: 95° C. for 5 min, and 45 cycles at 95° C. for 15 s and 60° C. for 15 s, then 72° C. for 15 s. Specific primers were designed by Universal Probe Library system (UPL, Roche Applied Science). To normalize the Q-PCR results we used Roche LightCycler 2.0 software (Roche Diagnostic). We expressed results as 2-[…], where Cp is the cycle threshold number. We analyzed dissociation curves after each run for each amplicon to access the specificity of quantification when using SYBR Green. 25 μg of protein extracts obtained by RIPA buffer lysis of renal cortex were fractionated by SDS-PAGE NuPAGE 4/12% gels (Invitrogen) under reducing conditions using an XCell SureLockTM Mini-Cell (NuPAGE, Invitrogen, San Diego, Calif., USA) as described by the manufacturer and transferred onto a nitrocellulose membrane (Immobilon-P, Millipore, Billerica, Mass., USA) prior to detection of the POST (Biovendor) or β-actin (Imgenex, Clinisciences, France) protein with a specific rabbit polyclonal primary Ab (dilution 1/1000 and 1/5000 respectively) and a peroxidase-labelled IgG anti-rabbit secondary Ab (dilution 1/4000). The membrane was detected by enhanced chemiluminescence (ECL)-plus kit (Amersham Biosciences, Piscataway, N.J., USA) on autoradiography films (Fuji).

[5] = all losartan-treated groups compared to L-NAME 6w and 10w groups

Structure (SMILES) | proteinuria ([1]; rats, L-NAME, week 6) [g/mmol creatininuria] | creatininemia ([1]; rats, L-NAME, week 10) [µmol/L] | MAP (mean arterial pressure) ([2]; rats, 6 weeks treatment) [mmHg] | MAP (mean arterial pressure) ([2]; rats, 10 weeks treatment) [mmHg] | renal blood flow ([2]; rats, from 6 weeks LNAME treatment onwards) | CD3+ lymphocyte count [3] | periostin mRNA up-regulation in kidney (RT-qPCR) ([4]; after 6 weeks LNAME) [fold] | periostin mRNA up-regulation in kidney (RT-qPCR) ([4]; after 10 weeks LNAME) [fold] | creatininemia ([1]; after 4 weeks Losartan (30 mg/kg/day orally)+LNAME, "No Regression" (NOREG) group) [µmol/L] | creatininemia ([1]; after 4 weeks Losartan (30 mg/kg/day orally)+LNAME, "Regression" (REG) group) [µmol/L] | proteinuria [1, 5] | renal hemodynamic alterations [2, 5] | periostin expression in renal cortex ([4]; L-NAME+losartan 4 weeks, NOREG group) | periostin mRNA and protein expression in renal cortex ([4]; L-NAME+losartan 4 weeks, REG group) | vimentin mRNA expression in renal cortex ([4]; after initiation of losartan in L-NAME rats, irrespective of the REG/NOREG group)
COC(=O)[C@@H](N)CCCNC(=N)N[N+](=O)[O-] [LNAME, L-NAME] | 1.3±0.2 | 100 ± 14 | 211±7 | 212±5 | striking reduction | strongly increased | 13 | 18 |  |  |  |  |  |  | 
CCCCc1nc(Cl)c(CO)n1Cc1ccc(-c2ccccc2-c2nn[nH]n2)cc1 [Losartan] |  |  |  |  |  |  |  |  | 76 ± 3 | 50 ± 2 | ameliorated | ameliorated | persistent increase | significantly blunted | sharp decrease
